{"source": "PubChem BioAssay (NCI)", "assay_in_all_cases": "NCI tumour cell line growth inhibition, 48 h", "key": {"SNB-19 CNS": {"test_system": "SNB-19 CNS"}, "786-0 renal": {"test_system": "786-0 renal"}, "MDA-MB-231 breast": {"test_system": "MDA-MB-231 breast"}, "CCRF-CEM leukemia": {"test_system": "CCRF-CEM leukemia"}, "SK-MEL-5 melanoma": {"test_system": "SK-MEL-5 melanoma"}, "MOLT-4 leukemia": {"test_system": "MOLT-4 leukemia"}, "EKVX NSCLC": {"test_system": "EKVX NSCLC"}, "SF-539 CNS": {"test_system": "SF-539 CNS"}, "HCT-15 colon": {"test_system": "HCT-15 colon"}, "NCI-H522 lung": {"test_system": "NCI-H522 lung"}, "U251 CNS": {"test_system": "U251 CNS"}, "COLO 205 colon": {"test_system": "COLO 205 colon"}, "SK-OV-3 ovarian": {"test_system": "SK-OV-3 ovarian"}, "DU-145 prostate": {"test_system": "DU-145 prostate"}, "MDA-MB-435": {"test_system": "MDA-MB-435"}, "NCI-H23 lung": {"test_system": "NCI-H23 lung"}, "SN12C renal": {"test_system": "SN12C renal"}, "T-47D breast": {"test_system": "T-47D breast"}, "MCF7 breast": {"test_system": "MCF7 breast"}, "BT-549 breast": {"test_system": "BT-549 breast"}, "NCI/ADR-RES ovarian": {"test_system": "NCI/ADR-RES ovarian"}, "SK-MEL-2 melanoma": {"test_system": "SK-MEL-2 melanoma"}, "SW-620 colon": {"test_system": "SW-620 colon"}, "HOP-92 NSCLC": {"test_system": "HOP-92 NSCLC"}, "HT29 colon": {"test_system": "HT29 colon"}, "TK-10 renal": {"test_system": "TK-10 renal"}, "HS 578T breast": {"test_system": "HS 578T breast"}, "HCC-2998 colon": {"test_system": "HCC-2998 colon"}}, "note": "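Compound exposure: 48 hours, 5 concentrations, 96-well plates. At the GI50, growth is halved. Definition used: TGI = concentration required for complete inhibition of growth.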", "data": [{"smiles": "O=C(/C=C/c1cccc(O)c1)c1cccc(-n2cc(-c3ccc(Cl)cc3)[nH]c2=O)c1", "values": [{"measurement": "TGI", "setting": "SNB-19 CNS", "result": 4.37, "unit": "µM"}, {"measurement": "GI50", "setting": "786-0 renal", "result": 1.57, "unit": "µM"}, {"measurement": "TGI", "setting": "786-0 renal", "result": 2.99, "unit": "µM"}, {"measurement": "GI50", "setting": "MDA-MB-231 breast", "result": 3.35, "unit": "µM"}, {"measurement": "TGI", "setting": "MDA-MB-231 breast", "result": 17.3, "unit": "µM"}, {"measurement": "GI50", "setting": "CCRF-CEM leukemia", "result": 1.76, "unit": "µM"}, {"measurement": "TGI", "setting": "CCRF-CEM leukemia", "result": 9.97, "unit": "µM"}, {"measurement": "GI50", "setting": "SK-MEL-5 melanoma", "result": 1.53, "unit": "µM"}, {"measurement": "TGI", "setting": "SK-MEL-5 melanoma", "result": 3.36, "unit": "µM"}, {"measurement": "GI50", "setting": "MOLT-4 leukemia", "result": 0.535, "unit": "µM"}, {"measurement": "TGI", "setting": "MOLT-4 leukemia", "result": 6.31, "unit": "µM"}, {"measurement": "GI50", "setting": "EKVX NSCLC", "result": 2.4, "unit": "µM"}, {"measurement": "TGI", "setting": "EKVX NSCLC", "result": 9.62, "unit": "µM"}, {"measurement": "GI50", "setting": "SF-539 CNS", "result": 1.68, "unit": "µM"}, {"measurement": "TGI", "setting": "SF-539 CNS", "result": 3.22, "unit": "µM"}, {"measurement": "GI50", "setting": "HCT-15 colon", "result": 2.34, "unit": "µM"}, {"measurement": "TGI", "setting": "HCT-15 colon", "result": 10.5, "unit": "µM"}, {"measurement": "GI50", "setting": "NCI-H522 lung", "result": 1.65, "unit": "µM"}, {"measurement": "TGI", "setting": "NCI-H522 lung", "result": 4.36, "unit": "µM"}, {"measurement": "GI50", "setting": "U251 CNS", "result": 0.588, "unit": "µM"}, {"measurement": "TGI", "setting": "U251 CNS", "result": 2.15, "unit": "µM"}, {"measurement": "GI50", "setting": "COLO 205 colon", "result": 2.29, "unit": "µM"}, {"measurement": "TGI", "setting": "COLO 205 colon", "result": 4.95, "unit": "µM"}, {"measurement": "GI50", "setting": "SK-OV-3 ovarian", "result": 4.22, "unit": "µM"}, {"measurement": "TGI", "setting": "SK-OV-3 ovarian", "result": 17.2, "unit": "µM"}, {"measurement": "GI50", "setting": "DU-145 prostate", "result": 1.68, "unit": "µM"}, {"measurement": "TGI", "setting": "DU-145 prostate", "result": 4.18, "unit": "µM"}, {"measurement": "GI50", "setting": "MDA-MB-435", "result": 2.06, "unit": "µM"}, {"measurement": "TGI", "setting": "MDA-MB-435", "result": 6.64, "unit": "µM"}, {"measurement": "GI50", "setting": "NCI-H23 lung", "result": 2.78, "unit": "µM"}, {"measurement": "TGI", "setting": "NCI-H23 lung", "result": 10.6, "unit": "µM"}, {"measurement": "GI50", "setting": "SN12C renal", "result": 1.95, "unit": "µM"}, {"measurement": "TGI", "setting": "SN12C renal", "result": 5.93, "unit": "µM"}, {"measurement": "GI50", "setting": "T-47D breast", "result": 1.92, "unit": "µM"}, {"measurement": "TGI", "setting": "T-47D breast", "result": 6.03, "unit": "µM"}, {"measurement": "GI50", "setting": "MCF7 breast", "result": 1.29, "unit": "µM"}, {"measurement": "TGI", "setting": "MCF7 breast", "result": 3.76, "unit": "µM"}, {"measurement": "GI50", "setting": "BT-549 breast", "result": 1.45, "unit": "µM"}, {"measurement": "TGI", "setting": "BT-549 breast", "result": 3.72, "unit": "µM"}, {"measurement": "GI50", "setting": "NCI/ADR-RES ovarian", "result": 2.2, "unit": "µM"}, {"measurement": "TGI", "setting": "NCI/ADR-RES ovarian", "result": 5.96, "unit": "µM"}, {"measurement": "GI50", "setting": "SK-MEL-2 melanoma", "result": 2.07, "unit": "µM"}, {"measurement": "TGI", "setting": "SK-MEL-2 melanoma", "result": 4.67, "unit": "µM"}, {"measurement": "GI50", "setting": "SW-620 colon", "result": 1.62, "unit": "µM"}, {"measurement": "TGI", "setting": "SW-620 colon", "result": 4.74, "unit": "µM"}, {"measurement": "GI50", "setting": "HOP-92 NSCLC", "result": 1.6, "unit": "µM"}, {"measurement": "TGI", "setting": "HOP-92 NSCLC", "result": 5.41, "unit": "µM"}, {"measurement": "GI50", "setting": "HT29 colon", "result": 1.9, "unit": "µM"}, {"measurement": "TGI", "setting": "HT29 colon", "result": 3.99, "unit": "µM"}, {"measurement": "GI50", "setting": "TK-10 renal", "result": 2.83, "unit": "µM"}, {"measurement": "TGI", "setting": "TK-10 renal", "result": 9.13, "unit": "µM"}, {"measurement": "GI50", "setting": "HS 578T breast", "result": 4, "unit": "µM"}, {"measurement": "TGI", "setting": "HS 578T breast", "result": 44, "unit": "µM"}, {"measurement": "GI50", "setting": "HCC-2998 colon", "result": 13.7, "unit": "µM"}, {"measurement": "TGI", "setting": "HCC-2998 colon", "result": 27.6, "unit": "µM"}]}]}
